Assay results published in patent EP3578559B1, “DYE FOR FLUORESCENT STAINING OF STRATUM CORNEUM, MANNER OF ITS SYNTHESIS AND APPLICATION IN MICROSCOPY, INCLUDING IDENTIFICATION OF ROUTES OF SUBSTANCES PENETRATION TO THE SKIN AND ASSESSMENT OF STRUCTURAL DISORDERS OF THIS LAYER” (Gdanski Uniwersytet Medyczny, priority 2018, dated 2019).
“Also recorded” adds a separate entry of the source. Read-outs that look alike come from different tables or passages of the source.

Key:
stratum corneum = assay: Fluorescent microscopy staining of stratum corneum of human skin ex vivo
Experimental: To obtain microscopic images of stratum corneum in a fluorescent microscope (Nikon Eclipse 50, Japan; the mercury lamp; the filter for wavelength: 330-380 nm; software for data acquisition NIS Elements AR 3.2.) Standard methodology was applied. A fragment of human skin ex vivo (1 cm x 1 cm) was subject to heat separation procedure (temperature 60 °C; 30 seconds) in order to separate epidermis (including stratum corneum) from the dermis. Fragments of the epidermis were placed on a microscopic glass, fluorescent dyes were applied and then incubated in thermostat for 10 minutes at 37 °C. After this time, the excess of dyes was removed by the use of laboratory absorption blotting paper and images of microscopic magnification were recorded in 10 x magnification of the lens, using the exposure time of 15-600 ms.

[1] = Octanol/water partition coefficient (logP), experimentally assigned; details: for octanol/water division ratio: ratio of concentrations of the dye in octanol/water
[2] = Fluorescence optical properties of the dye (Stokes shift, absorption/emission); assay type: physicochemical
[3] = commercial dye; cited from earlier work
[4] = post application of water / hydrophilic compounds, 10x

Which “characterization of hydrophilicity/lipophilicity with regard to diffusion to stratum corneum” value (stratum corneum; on the basis of the conducted research) does the source give for `CC[N+]1(CC)CN2C(=N1)C(C(=O)[O-])=Cc1ccccc12` [P4] here?
Its value is “too hydrophilic”.

And the “staining of the lipids inside the lipid matrix or corneocytes proteins” value (stratum corneum; stratum corneum structures)?
The value was “lack of staining”.

And the octanol/water division ratio [1]?
The octanol/water division ratio was 0,01.

What about the logP (physchem) of the same compound?
Its logP is -1.9.

With `CC[N+]1(CC)CN2C(=N1)C(C(=O)ON1C(=O)CCC1=O)=Cc1ccc(C)cc12.[Cl-]` [SAFQ8MeAKT, 4-((2,5-dioxopyrrolidin-1-yloxy)carbonyl)-2,2-diethyl-8-methyl-1,2-dihydro-[1,2,4]triazolo[4,3-a]quinolin-2-ium chloride] as the compound, how does the staining of corneocytes (stratum corneum; 10x) read?
The staining of corneocytes was “staining of the inside of corneocytes”.

What about the staining of canyons (stratum corneum; [4]) of the same compound?
The staining of canyons was “canyons are stained”.

And the Stokes shift [2]?
The Stokes shift was 95 nm.

And the characteristic absorption [2]?
The characteristic absorption was 365 nm.

What about the characteristic emission [2] of the same compound?
Its characteristic emission is 460 nm.

What about the octanol/water division ratio [1] of the same compound?
The octanol/water division ratio was 0,37.

And the “greater lipophilicity than P4 dye” value ([1]; relative to P4 dye)?
Its value is “approx. 40 times”.

And the logP (physchem)?
Its logP is -0.43.

Which results are given for `CCCCCCOC(=O)c1ccccc1-c1c2ccc(=[N+](CC)CC)cc-2oc2cc(N(CC)CC)ccc12` [RBHE, Rhodamine hexylester]?
microscope image quality of stained structures (stratum corneum; after application of siloxane with a cyclic structure, compared with SAFQ8MeAKT, 10x): not as explicit; staining of canyons (stratum corneum; lipophilic compounds (siloxane D4), 10x): does not stain canyons so vividly; staining of canyons (stratum corneum; [4]): canyons are not visible; also recorded: does not dye canyons

Which staining of corneocytes (stratum corneum; 10x) does the source give for `CCN(CC)c1ccc2c(-c3ccc(S(=O)(=O)O)cc3S(=O)(=O)[O-])c3ccc(=[N+](CC)CC)cc-3oc2c1` [SRB, Sulforhodamines B] here?
The staining of corneocytes was “noticeably stains corneocytes”.

And the staining of canyons (stratum corneum; dye alone (Fig. 11), 10x)?
Its staining of canyons is “does not dye the canyons”.

And the characteristic absorption [3]?
Its characteristic absorption is 565 nm.

And the characteristic emission [3]?
The characteristic emission was 590 nm.
